Test systems include SN12C renal; SR leukemia; 786-0 renal; SK-MEL-2 melanoma; A498 renal; EKVX NSCLC; U251 CNS; SNB-19 CNS; HCT-15 colon; OVCAR-5 ovarian; K-562 leukemia; SF-539 CNS; CCRF-CEM leukemia.
Experiment in all cases: NCI tumour cell line growth inhibition, 48 h

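Five compound concentrations were applied to cells in 96-well plates for 48 hours; endpoints were derived by simple linear interpolation of the resulting dose-response curve. TGI: concentration producing complete growth inhibition.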

Regarding `COCN1C(=O)[C@@H]2CCCN2C(=O)c2cc(Cl)ccc21`, the TGI with SN12C renal, in the test on SR leukemia, in the test with 786-0 renal, in the test with SK-MEL-2 melanoma, with A498 renal and in the test with EKVX NSCLC was over 100 µM in each case. In addition, the TGI in the test with U251 CNS, in the test with SNB-19 CNS, in the test on HCT-15 colon, in the test with OVCAR-5 ovarian and in the test with K-562 leukemia was over 100 µM throughout.

Consider `CC1C(=O)CC[C@@]2(C)C(=O)CCCC12O` (some centres undefined), for which the TGI in the test with SN12C renal, in the test on SR leukemia, in the test with 786-0 renal, in the test on SK-MEL-2 melanoma, with A498 renal and in the test with EKVX NSCLC was over 100 µM in each case. Also, the TGI in the test with U251 CNS, with SNB-19 CNS, in the test with HCT-15 colon, in the test with OVCAR-5 ovarian, in the test with SF-539 CNS and in the test with K-562 leukemia was over 100 µM throughout.

Regarding `COc1cc(O)c2c(c1O)C(=O)c1cc(C)ncc1C2=O`, the TGI was over 50 µM in the test with SN12C renal; over 50 µM with 786-0 renal; over 50 µM in the test on SK-MEL-2 melanoma; over 50 µM in the test on A498 renal; over 50 µM with EKVX NSCLC; 30.7 µM in the test on U251 CNS. Moreover, the TGI with SNB-19 CNS, in the test with HCT-15 colon, in the test on OVCAR-5 ovarian, in the test with SF-539 CNS, in the test on CCRF-CEM leukemia and in the test with K-562 leukemia was over 50 µM each time.

For `Cc1cccc2c(N)c3cccc(C(=O)NCCN4CCOCC4)c3nc12`, the TGI with SN12C renal is 7.97 µM; in the test on 786-0 renal, 20.5 µM; in the test with SK-MEL-2 melanoma, 2.61 µM; in the test on A498 renal, 5 µM; in the test with EKVX NSCLC, 5.66 µM; with U251 CNS it was 20.5 µM. For the same compound, the TGI with SNB-19 CNS is 3.12 µM; in the test on HCT-15 colon it was 6.39 µM; with OVCAR-5 ovarian, 8.7 µM; in the test on SF-539 CNS, over 100 µM.

With `O=C1C=C(NCCc2cc(Cl)c(O)c(Cl)c2)C(=O)c2[nH]cnc21`, the TGI with SN12C renal was over 100 µM; in the test on SR leukemia, over 100 µM; in the test on 786-0 renal, over 100 µM; in the test with SK-MEL-2 melanoma, 57.6 µM; with A498 renal, over 100 µM; in the test on EKVX NSCLC it was over 100 µM. Besides, the TGI is over 100 µM in the test on U251 CNS; over 100 µM in the test on SNB-19 CNS; over 100 µM in the test on HCT-15 colon; over 100 µM with OVCAR-5 ovarian; over 100 µM with SF-539 CNS; 55.4 µM in the test with K-562 leukemia.

Take `Cc1ccc(S(=O)(=O)c2ccsc2NC(=O)c2ccccc2)cc1`: the TGI with SN12C renal is over 100 µM; with SR leukemia, over 100 µM; in the test on 786-0 renal it was over 79.6 µM; with SK-MEL-2 melanoma it was over 100 µM; with A498 renal it was over 100 µM; with EKVX NSCLC it was over 100 µM. Moreover, the TGI is over 100 µM with U251 CNS; over 100 µM in the test with SNB-19 CNS; over 100 µM with HCT-15 colon; over 100 µM with OVCAR-5 ovarian; over 100 µM in the test with SF-539 CNS; over 21.8 µM in the test on K-562 leukemia.

Turning to `C=CCOCn1ccc(NC(=O)c2ccccc2)nc1=O`, the TGI with SN12C renal, with SR leukemia, with 786-0 renal, in the test on A498 renal, with EKVX NSCLC and in the test with SNB-19 CNS was over 100 µM throughout. For the same compound, the TGI in the test on HCT-15 colon, in the test with SF-539 CNS, in the test with CCRF-CEM leukemia and in the test with K-562 leukemia was over 100 µM throughout.

Regarding `O=C(/C=C/c1ccc(O)cc1)c1cc(O)cc(O)c1`, the TGI in the test on SN12C renal was determined as 28.4 µM; in the test with 786-0 renal, 30.6 µM; with SK-MEL-2 melanoma, 34.9 µM; with A498 renal, 28.1 µM; in the test on EKVX NSCLC, 32.5 µM; in the test with U251 CNS it was 27.5 µM. The TGI with SNB-19 CNS came out at 30.3 µM; with HCT-15 colon, 16.9 µM; with OVCAR-5 ovarian it was 29 µM; with SF-539 CNS it was 26.5 µM; with CCRF-CEM leukemia it was 35.1 µM; with K-562 leukemia it was 18.4 µM.

In the case of `CCCC(=O)[O-].CCCC(=O)[O-].N.N.N.N.[Co+3].[O-][Cl+3]([O-])([O-])[O-]`, the TGI with SN12C renal, in the test with 786-0 renal, with SK-MEL-2 melanoma, in the test on A498 renal, in the test with EKVX NSCLC and in the test on U251 CNS was over 100 µM each time. Moreover, the TGI in the test with SNB-19 CNS, with HCT-15 colon, with OVCAR-5 ovarian, with SF-539 CNS, in the test on CCRF-CEM leukemia and with K-562 leukemia was over 100 µM throughout.

`NS(=O)(=O)c1ccc(N=Nc2nc3[nH]cnc(=S)c3[nH]2)cc1`: the TGI in the test on SN12C renal is over 40.1 µM; in the test on SR leukemia it was 1.11 µM; in the test on 786-0 renal, over 100 µM; with A498 renal, 98.9 µM; with EKVX NSCLC, over 100 µM; with U251 CNS it was over 100 µM. Further, the TGI with SNB-19 CNS is over 100 µM; with HCT-15 colon, over 50.9 µM; with OVCAR-5 ovarian, over 60.2 µM; with SF-539 CNS, 34.4 µM; in the test with CCRF-CEM leukemia, 4.21 µM; in the test with K-562 leukemia it was over 53.1 µM.

With `Nc1nc(NCC2(CO)CC(CCc3ccccc3)C2)cc(=O)[nH]1` (centres undefined), the TGI in the test with SN12C renal, in the test on SR leukemia, in the test with 786-0 renal, in the test with SK-MEL-2 melanoma, in the test on A498 renal and in the test with EKVX NSCLC was over 100 µM in each case. Besides, the TGI in the test on U251 CNS, in the test with SNB-19 CNS, in the test with HCT-15 colon, with OVCAR-5 ovarian, in the test on CCRF-CEM leukemia and in the test with K-562 leukemia was over 100 µM each time.

In the case of `CCN(CC)C(=O)N[C@@H](Cc1ccccc1)C(=O)NC`, the TGI in the test on SN12C renal, with SR leukemia, in the test with 786-0 renal, with SK-MEL-2 melanoma, in the test with A498 renal and with EKVX NSCLC was over 100 µM in each case. In addition, the TGI in the test on U251 CNS, in the test with SNB-19 CNS, in the test on HCT-15 colon, in the test with OVCAR-5 ovarian, in the test with CCRF-CEM leukemia and in the test on K-562 leukemia was over 100 µM throughout.

Values taken from PubChem BioAssay (NCI).
